# Measured values as given in ChEMBL document CHEMBL4673282, “Identification of a New Heterocyclic Scaffold for Inhibitors of the Polo-Box Domain of Polo-like Kinase 1” (J Med Chem, 2020).
# The source made the active and inactive calls. The rule behind the calls is not given here.
# Test system: not listed separately
# Assay: in vitro
# Conditions: PAMPA
row,Compound,Papp
1,CN(C)CCn1c(=O)c2cc(F)ccc2n2c(=S)[nH]nc12,117 ×10⁻⁶ cm/s
2,O=c1c2cc(F)ccc2n2c(=S)[nH]nc2n1CCCO,222 ×10⁻⁶ cm/s
3,O=c1c2cc(F)ccc2n2c(=S)[nH]nc2n1Cc1ccccc1,841 ×10⁻⁶ cm/s
4,CN1CCN(CC(=O)NCCCn2c(=O)c3cc(F)ccc3n3c(=S)[nH]nc23)CC1,< 1 ×10⁻⁶ cm/s
5,CCCCn1c(=O)c2ccccc2n2c(S)nnc12,77.5 ×10⁻⁶ cm/s
6,O=c1c2cc(F)ccc2n2c(=S)[nH]nc2n1CCc1cccnc1,< 1 ×10⁻⁶ cm/s
7,COc1cccc(CC(=O)NCCCn2c(=O)c3cc(F)ccc3n3c(=S)[nH]nc23)c1,300 ×10⁻⁶ cm/s
8,CC(C)(C)OC(=O)NC1CCC(C(=O)NCCCn2c(=O)c3cc(F)ccc3n3c(=S)[nH]nc23)CC1 (racemic),330 ×10⁻⁶ cm/s
9,O=c1c2cc(F)ccc2n2cnnc2n1CCc1ccccc1,924 ×10⁻⁶ cm/s
10,CC(=O)NCCCn1c(=O)c2cc(F)ccc2n2c(=S)[nH]nc12,18 ×10⁻⁶ cm/s
11,CN(C)c1ccc2c(c1)c(=O)n(CCc1ccccc1)c1n[nH]c(=S)n21,356 ×10⁻⁶ cm/s
12,O=c1c2cc(F)ccc2n2c(=S)[nH]nc2n1CCc1ccccn1,355 ×10⁻⁶ cm/s

# Molecular target: Serine/threonine-protein kinase PLK3 (Homo sapiens) (UniProt Q9H4B4)
# Assay: Inhibition of FITC-Ahx-DPPLHSpTAI-NH2 binding to Plk3 PBD (unknown origin) expressed in bacterial expression system measured after 30 mins by fluorescence polarization assay
# Conditions: not given
# Serine/threonine-protein kinase PLK3 (Homo sapiens), sequence (Q9H4B4 whole entry, looked up): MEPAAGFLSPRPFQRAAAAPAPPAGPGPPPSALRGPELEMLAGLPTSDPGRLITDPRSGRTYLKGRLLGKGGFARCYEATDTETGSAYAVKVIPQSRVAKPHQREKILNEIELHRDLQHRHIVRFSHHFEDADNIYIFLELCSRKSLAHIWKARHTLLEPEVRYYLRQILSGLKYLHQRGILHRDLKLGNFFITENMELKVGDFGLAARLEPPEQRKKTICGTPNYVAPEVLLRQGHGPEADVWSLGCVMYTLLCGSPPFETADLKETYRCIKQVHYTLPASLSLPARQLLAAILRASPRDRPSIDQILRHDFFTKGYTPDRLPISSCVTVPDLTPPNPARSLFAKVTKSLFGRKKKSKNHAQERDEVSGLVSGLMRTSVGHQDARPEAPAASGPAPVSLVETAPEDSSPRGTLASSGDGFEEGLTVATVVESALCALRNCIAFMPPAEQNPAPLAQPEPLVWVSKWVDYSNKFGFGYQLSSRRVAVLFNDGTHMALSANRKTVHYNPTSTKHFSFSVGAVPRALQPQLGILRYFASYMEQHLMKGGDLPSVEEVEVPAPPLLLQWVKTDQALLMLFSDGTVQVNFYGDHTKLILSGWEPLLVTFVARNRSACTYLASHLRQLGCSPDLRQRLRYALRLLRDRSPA
row,inhibition,Compound
1,inactive,CC(=O)N1CCC[C@H]1C(=O)N[C@@H](CC(C)C)C(=O)N[C@@H](Cc1cnc[nH]1)C(=O)N[C@@H](CO)C(=O)N[C@H](C(=O)O)[C@@H](C)O
2,inactive,CC(=O)N1CCC[C@H]1C(=O)N[C@@H](CC(C)C)C(=O)N[C@@H](Cc1cnc[nH]1)C(=O)N[C@@H](CO)C(=O)N[C@H](C(=O)O)[C@@H](C)OP(=O)(O)O

# Test system: not listed separately
# Assay: Half life in rat liver microsomes at 1 uM measured up to 60 mins in presence of NADPH generating system
# Conditions: 1 h
row,Compound,t1/2
1,CN(C)CCn1c(=O)c2cc(F)ccc2n2c(=S)[nH]nc12,> 30 min
2,O=c1c2cc(F)ccc2n2c(=S)[nH]nc2n1CCCO,> 30 min
3,O=c1c2cc(F)ccc2n2c(=S)[nH]nc2n1Cc1ccccc1,> 30 min
4,CN1CCN(CC(=O)NCCCn2c(=O)c3cc(F)ccc3n3c(=S)[nH]nc23)CC1,> 30 min
5,CCCCn1c(=O)c2ccccc2n2c(S)nnc12,> 30 min
6,O=c1c2cc(F)ccc2n2c(=S)[nH]nc2n1CCc1cccnc1,> 30 min
7,COc1cccc(CC(=O)NCCCn2c(=O)c3cc(F)ccc3n3c(=S)[nH]nc23)c1,20.1 min
8,CC(C)(C)OC(=O)NC1CCC(C(=O)NCCCn2c(=O)c3cc(F)ccc3n3c(=S)[nH]nc23)CC1 (racemic),24.8 min
9,O=c1c2cc(F)ccc2n2cnnc2n1CCc1ccccc1,11.8 min
10,CC(=O)NCCCn1c(=O)c2cc(F)ccc2n2c(=S)[nH]nc12,> 30 min
11,CN(C)c1ccc2c(c1)c(=O)n(CCc1ccccc1)c1n[nH]c(=S)n21,13.3 min
12,O=c1c2cc(F)ccc2n2c(=S)[nH]nc2n1CCc1ccccn1,> 30 min

# Molecular target: Serine/threonine-protein kinase PLK1 (Homo sapiens, UniProt P53350)
# Assay: Inhibition of biotin-Ahx-CETFDPPLHSpTAI-NH2 binding to recombinant human full-length HA-EGFP-tagged Plk1 PBD expressed in HEK293A cells preincubated for 30 mins followed by biotin-Ahx-CETFDPPLHSpTAI-NH2 addition and measured after 1 hr by 3,3',5,5'-tetramethylbenzidine substrate based ELISA
# Assay type: cell-based, HEK293-A
# Conditions: not given
# Serine/threonine-protein kinase PLK1, sequence (P53350 whole entry): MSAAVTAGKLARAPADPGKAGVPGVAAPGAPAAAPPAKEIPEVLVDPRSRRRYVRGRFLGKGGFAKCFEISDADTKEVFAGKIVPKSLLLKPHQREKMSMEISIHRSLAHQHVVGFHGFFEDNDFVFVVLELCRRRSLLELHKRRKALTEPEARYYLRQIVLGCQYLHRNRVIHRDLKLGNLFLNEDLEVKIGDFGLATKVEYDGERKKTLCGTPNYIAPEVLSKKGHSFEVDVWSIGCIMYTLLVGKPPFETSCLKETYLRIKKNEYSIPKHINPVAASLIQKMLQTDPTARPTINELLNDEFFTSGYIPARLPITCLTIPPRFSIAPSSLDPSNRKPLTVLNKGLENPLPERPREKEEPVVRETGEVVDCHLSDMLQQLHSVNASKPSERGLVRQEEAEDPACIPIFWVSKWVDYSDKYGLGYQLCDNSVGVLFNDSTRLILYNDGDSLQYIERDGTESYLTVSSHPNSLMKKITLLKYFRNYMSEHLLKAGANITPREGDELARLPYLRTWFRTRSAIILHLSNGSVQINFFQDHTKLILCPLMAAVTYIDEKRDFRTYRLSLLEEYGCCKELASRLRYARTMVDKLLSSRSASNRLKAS
row,Compound,IC50
1,CCCCCn1c(=O)c2ccccc2n2c(S)nnc12,1970 nM
2,CCOCCCn1c(=O)c2ccccc2n2c(S)nnc12,1680 nM
3,C=CCn1c(=O)c2ccccc2n2c(S)nnc12,1310 nM
4,CC(C)CCn1c(=O)c2ccccc2n2c(=S)[nH]nc12,1730 nM
5,CCCCn1c(=O)c2ccccc2n2c(S)nnc12,1030 nM
6,COCCCn1c(=O)c2ccccc2n2c(S)nnc12,1750 nM
7,Cc1cccc(-n2c(=O)c3ccccc3n3c(S)nnc23)c1C,1850 nM
8,CCCn1c(=O)c2ccccc2n2c(=S)n(CC(=O)c3ccccc3)nc12,> 50000 nM

# Test system: not listed separately
# Assay: Aqueous solubility of compound
# Assay type: physicochemical
# Conditions: buffer
row,Compound,solubility
1,CCCCCn1c(=O)c2ccccc2n2c(S)nnc12,4.2 µg/mL
2,CCOCCCn1c(=O)c2ccccc2n2c(S)nnc12,15.5 µg/mL
3,C=CCn1c(=O)c2ccccc2n2c(S)nnc12,19.4 µg/mL
4,CN(C)CCn1c(=O)c2cc(F)ccc2n2c(=S)[nH]nc12,> 45 µg/mL
5,CC(C)CCn1c(=O)c2ccccc2n2c(=S)[nH]nc12,8 µg/mL
6,O=c1c2cc(F)ccc2n2c(=S)[nH]nc2n1CCCO,> 43 µg/mL
7,O=c1c2cc(F)ccc2n2c(=S)[nH]nc2n1Cc1ccccc1,8.3 µg/mL
8,CN1CCN(CC(=O)NCCCn2c(=O)c3cc(F)ccc3n3c(=S)[nH]nc23)CC1,> 64 µg/mL
9,CCCCn1c(=O)c2ccccc2n2c(S)nnc12,8.5 µg/mL
10,O=c1c2cc(F)ccc2n2c(=S)[nH]nc2n1CCc1cccnc1,25.1 µg/mL
11,CC(C)(C)OC(=O)NC1CCC(C(=O)NCCCn2c(=O)c3cc(F)ccc3n3c(=S)[nH]nc23)CC1 (racemic),> 77 µg/mL
12,COCCCn1c(=O)c2ccccc2n2c(S)nnc12,31.2 µg/mL
13,O=c1c2cc(F)ccc2n2cnnc2n1CCc1ccccc1,14.8 µg/mL
14,CC(=O)NCCCn1c(=O)c2cc(F)ccc2n2c(=S)[nH]nc12,> 50 µg/mL
15,CN(C)c1ccc2c(c1)c(=O)n(CCc1ccccc1)c1n[nH]c(=S)n21,< 1 µg/mL
16,O=c1c2cc(F)ccc2n2c(=S)[nH]nc2n1CCc1ccccn1,13 µg/mL

# Same assay, conditions: buffer; read-out: solubility
row,Compound,solubility
1,COc1cccc(CC(=O)NCCCn2c(=O)c3cc(F)ccc3n3c(=S)[nH]nc23)c1,> 65 µg/mL
